The source of these data is patent publication US20260355323A1, “CEREBLON-RECRUITING BCL-XL/BCL-2 DUAL DEGRADERS” (University of Florida Research Foundation, Incorporated, priority 2022, published 2026).

The test system of assay [1] is MOLT-4 acute lymphoblastic leukemia cells. Put plainly: Cell viability, tetrazolium-based MTS assay, MOLT-4. As to conditions: Homo sapiens, MOLT-4, 48 h; read-out: Anti-Cancer Activity EC50 (48 hr), MOLT-4. How it is done: (§1) Acute lymphoblastic leukemia cells (MOLT-4 and RS4;11) were incubated with increasing concentrations of Bcl-xL/Bcl-2 degraders for 48 h. Cell viability was measured by tetrazolium-based MTS assay.
(In general: Tetrazolium assays rely on reduction of a dye to a coloured formazan, in cell work by metabolically active cells.)

In assay [2] the test system is RS4;11 acute lymphoblastic leukemia cells. The assay can be described thus: Cell viability, tetrazolium-based MTS assay, RS4;11. The note with it: Homo sapiens, RS4;11, 48 h, read-out: Anti-Cancer Activity EC50 (48 hr), RS4. The protocol:
as §1

The next assay deals with WI-38 NC. Put plainly: Senolytic activity, cell viability (PrestoBlue HS), WI-38 NC. The assay is classed as cell-based. As to conditions: Homo sapiens, 72 h. How it is done: (§2) WI-38 and HUVEC cells were incubated with increasing concentrations of degraders for 72 h. Cell viability was measured using PrestoBlue HS cell viability reagent.
In assay [3] the test system is WI-38 irradiation-induced senescent cells (IR-SC). The assay can be described thus: Senolytic activity, cell viability (PrestoBlue HS), WI-38 IR-SC. The assay is classed as cell-based. As to conditions: Homo sapiens, 72 h. The protocol:
(§3) To induce senescence in WI-38 and HUVEC, cells were subjected to x-ray irradiation at 20 Gray using X-RAD 320 biological irradiator. Following between 10 to 15 days after irradiation, senescence was induced in cells, and irradiation-induced senescent cells (IR-SC) were then used for cell viability and Western blotting tests.
as §2

For assay [4], the target named is T1, Bcl-xL (Homo sapiens, UniProt Q07817).
T1 construct: immunoblot after 16 h degrader treatment
Put plainly: Bcl-xL protein degradation in Hela cells (immunoblot). The assay is classed as cell-based. As to conditions: 16 h. How it is done: (§4) Jurkat and Hela cells were incubated with increasing concentrations of test compounds for 16 h. The cells were harvested and lysed in RIPA lysis buffer supplemented with protease and phosphatase inhibitor cocktails. An equal amount of protein (20 μg/lane) was resolved on a pre-cast 4-20% SDS-PAGE gel. Proteins were subsequently transferred to NOVEX PVDF membranes by electrophoresis. The membranes were blocked in blocking buffer (5% non-fat dry milk in TBS-T), and incubated with primary antibodies (at optimized concentrations) overnight at 4° C. After three washings in TBS-T, the membranes were incubated with an appropriate FIRP-conjugated secondary antibody for 1 h at room temperature. After extensive washing for three times, the proteins of interest were detected with ECL western blotting detection reagents and recorded with autoradiography (Pierce Biotech, Rockford, IL, USA). The primary antibodies for Bcl-xL (Cat #2762), Bcl-2 (Cat #2872), Bcl-w (Cat #2724) and β-actin (Cat #4970) were purchased from Cell Signaling Technology. The relative band intensity was measured using ImageJ software and normalized to β-actin.
A general note: Immunoblotting shows a protein as a band on a membrane.

Assay [5] concerns the target T1, Bcl-xL. The assay can be described thus: Bcl-xL protein degradation in Jurkat cells (immunoblot). The assay is classed as cell-based. The note with it: 16 h. How it is done: as §4
Assay [6] relates to HUVEC irradiation-induced senescent cells (IR-SC). Put plainly: Senolytic activity, cell viability (PrestoBlue HS), HUVEC IR-SC. The assay is classed as cell-based. As to conditions: Homo sapiens, 72 h. The protocol:
as §3, §2

Molecules are shown by their SMILES. Bounds are passed on as bounds.

T1 sequence (Q07817 whole entry): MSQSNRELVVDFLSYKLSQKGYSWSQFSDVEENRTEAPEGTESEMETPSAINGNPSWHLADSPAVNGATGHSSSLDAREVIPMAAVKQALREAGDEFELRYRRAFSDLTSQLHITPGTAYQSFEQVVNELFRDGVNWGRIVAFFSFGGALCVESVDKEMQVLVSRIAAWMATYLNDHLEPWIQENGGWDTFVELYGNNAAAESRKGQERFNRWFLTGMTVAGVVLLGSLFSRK
T1 sequence (Q96SW2 whole entry partner): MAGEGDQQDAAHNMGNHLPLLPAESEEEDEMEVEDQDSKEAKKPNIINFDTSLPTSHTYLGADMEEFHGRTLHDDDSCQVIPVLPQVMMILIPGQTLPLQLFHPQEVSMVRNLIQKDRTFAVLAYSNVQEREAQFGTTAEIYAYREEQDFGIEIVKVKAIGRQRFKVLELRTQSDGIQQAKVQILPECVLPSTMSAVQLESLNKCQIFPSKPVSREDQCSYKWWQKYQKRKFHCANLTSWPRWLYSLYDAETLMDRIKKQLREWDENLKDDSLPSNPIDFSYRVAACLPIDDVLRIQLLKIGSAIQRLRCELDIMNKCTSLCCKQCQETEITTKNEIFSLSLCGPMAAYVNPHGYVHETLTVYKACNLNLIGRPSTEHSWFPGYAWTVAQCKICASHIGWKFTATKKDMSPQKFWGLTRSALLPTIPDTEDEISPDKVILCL

Turning to `C[C@@]1(CN2CCN(C(=O)CN3CCN(c4ccc5c(c4)CN(C4CCC(=O)NC4=O)C5=O)CC3)CC2)CCC(c2ccc(Cl)cc2)=C(CN2CCN(c3ccc(C(=O)NS(=O)(=O)c4ccc(N[C@H](CCN5CCCOCC5)CSc5ccccc5)c(S(=O)(=O)C(F)(F)F)c4)cc3)CC2)C1` (stereo partly drawn) [Compound 1, N-((4-(((R)-4-(1,4-oxazepan-4-yl)-1-(phenylthio)butan-2-yl)amino)-3-((trifluoromethyl)sulfonyl)phenyl)sulfonyl)-4-(4-(((4R)-4′-chloro-4-((4-(2-(4-(2-(2,6-dioxopiperidin-3-yl)-1-oxoisoindolin-5-yl)piperazin-1-yl)acetyl)piperazin-1-yl)methyl)-4-methyl-3,4,5,6-tetrahydro-[1,1′-biphenyl]-2-yl)methyl)piperazin-1-yl)benzamide], the EC50 in assay [1] is below 1 nM; in assay [2] it was below 1 nM; in the assay with WI-38 NC, above 10000 nM; in assay [3], 1 to 10 nM. Also, the “degradation of Bcl-xL” value at Bcl-xL [4] and on Bcl-xL [5] was “degrade Bcl-xL in a dose-dependent manner” throughout.

Regarding `C[C@@]1(CN2CCN(C(=O)CN3CCN(CC#Cc4ccc5c(c4)CN(C4CCC(=O)NC4=O)C5=O)CC3)CC2)CCC(c2ccc(Cl)cc2)=C(CN2CCN(c3ccc(C(=O)NS(=O)(=O)c4ccc(N[C@H](CCN5CCCOCC5)CSc5ccccc5)c(S(=O)(=O)C(F)(F)F)c4)cc3)CC2)C1` (stereo partly drawn) [Compound 4, N-((4-(((R)-4-(1,4-oxazepan-4-yl)-1-(phenylthio)butan-2-yl)amino)-3-((trifluoromethyl)sulfonyl)phenyl)sulfonyl)-4-(4-(((4R)-4′-chloro-4-((4-(2-(4-(3-(2-(2,6-dioxopiperidin-3-yl)-1-oxoisoindolin-5-yl)prop-2-yn-1-yl)piperazin-1-yl)acetyl)piperazin-1-yl)methyl)-4-methyl-3,4,5,6-tetrahydro-[1,1′-biphenyl]-2-yl)methyl)piperazin-1-yl)benzamide], the EC50 is below 1 nM in assay [1], below 1 nM in assay [2], above 10000 nM in the assay on WI-38 NC and 1 to 10 nM in assay [3]. In addition, the “degradation of Bcl-xL” value on Bcl-xL [4] and at Bcl-xL [5] was “degrade Bcl-xL in a dose-dependent manner” each time.

Turning to `C[C@@]1(CN2CCC(CN3CCC(CN4CCN(c5ccc6c(c5)CN(C5CCC(=O)NC5=O)C6=O)CC4)CC3)CC2)CCC(c2ccc(Cl)cc2)=C(CN2CCN(c3ccc(C(=O)NS(=O)(=O)c4ccc(N[C@H](CCN5CCCOCC5)CSc5ccccc5)c(S(=O)(=O)C(F)(F)F)c4)cc3)CC2)C1` (stereo partly drawn) [Compound 12, N-((4-(((R)-4-(1,4-oxazepan-4-yl)-1-(phenylthio)butan-2-yl)amino)-3-((trifluoromethyl)sulfonyl)phenyl)sulfonyl)-4-(4-(((4R)-4′-chloro-4-((4-((4-((4-(2-(2,6-dioxopiperidin-3-yl)-1-oxoisoindolin-5-yl)piperazin-1-yl)methyl)piperidin-1-yl)methyl)piperidin-1-yl)methyl)-4-methyl-3,4,5,6-tetrahydro-[1,1′-biphenyl]-2-yl)methyl)piperazin-1-yl)benzamide], the EC50 is below 1 nM in assay [1], below 1 nM in assay [2], above 10000 nM with WI-38 NC and 10 to 100 nM in assay [3]. In addition, the “degradation of Bcl-xL” value on Bcl-xL [4] and on Bcl-xL [5] was “degrade Bcl-xL in a dose-dependent manner” throughout.

Consider `CC1(CN2CCN(C(=O)CN3CCN(C(=O)COCCNc4cccc5c4C(=O)N(C4CCC(=O)NC4=O)C5=O)CC3)CC2)CCC(c2ccc(Cl)cc2)=C(CN2CCN(c3ccc(C(=O)NS(=O)(=O)c4ccc(N[C@H](CCN5CCOCC5)CSc5ccccc5)c(S(=O)(=O)C(F)(F)F)c4)cc3)CC2)C1` (stereo partly drawn) [Compound 15, 4-(4-((4′-chloro-4-((4-(2-(4-(2-(2-((2-(2,6-dioxopiperidin-3-yl)-1,3-dioxoisoindolin-4-yl)amino)ethoxy)acetyl)piperazin-1-yl)acetyl)piperazin-1-yl)methyl)-4-methyl-3,4,5,6-tetrahydro-[1,1′-biphenyl]-2-yl)methyl)piperazin-1-yl)-N-((4-(((R)-4-morpholino-1-30 (phenylthio)butan-2-yl)amino)-3-((trifluoromethyl)sulfonyl)phenyl)sulfonyl)benzamide], for which the EC50 in assay [1] was below 1 nM; in assay [2] it was below 1 nM; in the assay on WI-38 NC, above 10000 nM; in assay [3] it was 10000 to 100000 nM.

Turning to `CC1(CN2CCN(C(=O)CN3CCN(C(=O)CNc4cccc5c4C(=O)N(C4CCC(=O)NC4=O)C5=O)CC3)CC2)CCC(c2ccc(Cl)cc2)=C(CN2CCN(c3ccc(C(=O)NS(=O)(=O)c4ccc(N[C@H](CCN5CCOCC5)CSc5ccccc5)c(S(=O)(=O)C(F)(F)F)c4)cc3)CC2)C1` (stereo partly drawn) [Compound 16, 4-(4-((4′-chloro-4-((4-(2-(4-((2-(2,6-dioxopiperidin-3-yl)-1,3-dioxoisoindolin-4-yl)glycyl)piperazin-1-yl)acetyl)piperazin-1-yl)methyl)-4-methyl-3,4,5,6-tetrahydro-[1,1′-biphenyl]-2-yl)methyl)piperazin-1-yl)-N-((4-(((R)-4-morpholino-1-(phenylthio)butan-2-yl)amino)-3-((trifluoromethyl)sulfonyl)phenyl)sulfonyl)benzamide], the EC50 was below 1 nM in assay [1], below 1 nM in assay [2], above 10000 nM with WI-38 NC and 10 to 100 nM in assay [3].

With `CC1(CN2CCN(C(=O)CN3CCN(C(=O)COc4cccc5c4C(=O)N(C4CCC(=O)NC4=O)C5=O)CC3)CC2)CCC(c2ccc(Cl)cc2)=C(CN2CCN(c3ccc(C(=O)NS(=O)(=O)c4ccc(N[C@H](CCN5CCOCC5)CSc5ccccc5)c(S(=O)(=O)C(F)(F)F)c4)cc3)CC2)C1` (stereo partly drawn) [Compound 18, 4-(4-((4′-chloro-4-((4-(2-(4-(2-((2-(2,6-dioxopiperidin-3-yl)-1,3-dioxoisoindolin-4-yl)oxy)acetyl)piperazin-1-yl)acetyl)piperazin-1-yl)methyl)-4-methyl-3,4,5,6-tetrahydro-[1,1′-biphenyl]-2-yl)methyl)piperazin-1-yl)-N-((4-(((R)-4-morpholino-1-(phenylthio)butan-2-yl)amino)-3-((trifluoromethyl)sulfonyl)phenyl)sulfonyl)benzamide], the EC50 in assay [1] was below 1 nM; in assay [2] it was below 1 nM; in the assay with WI-38 NC, above 10000 nM; in assay [3], 10 to 100 nM.

For `C[C@@]1(CN2CCN(c3ccc4c(c3)C(=O)N(C3CCC(=O)NC3=O)C4)CC2)CCC(c2ccc(Cl)cc2)=C(CN2CCN(c3ccc(C(=O)NS(=O)(=O)c4ccc(N[C@H](CCN5CCCOCC5)CSc5ccccc5)c(S(=O)(=O)C(F)(F)F)c4)cc3)CC2)C1` (stereo partly drawn) [Compound 133, N-((4-(((R)-4-(1,4-oxazepan-4-yl)-1-(phenylthio)butan-2-yl)amino)-3-((trifluoromethyl)sulfonyl)phenyl)sulfonyl)-4-(4-(((4R)-4′-chloro-4-((4-(2-(2,6-dioxopiperidin-3-yl)-3-oxoisoindolin-5-yl)piperazin-1-yl)methyl)-4-methyl-3,4,5,6-tetrahydro-[1,1′-biphenyl]-2-yl)methyl)piperazin-1-yl)benzamide], the EC50 in assay [6] is below 1 nM; in assay [1] it was below 1 nM; in assay [2], 1 to 10 nM; in assay [3], 10 to 100 nM.

As for `C[C@@]1(CN2CCC(CN3CCN(c4ccc(NC5CCC(=O)NC5=O)cc4F)CC3)CC2)CCC(c2ccc(Cl)cc2)=C(CN2CCN(c3ccc(C(=O)NS(=O)(=O)c4ccc(N[C@H](CCN5CCCOCC5)CSc5ccccc5)c(S(=O)(=O)C(F)(F)F)c4)cc3)CC2)C1` (stereo partly drawn) [Compound 141, N-((4-(((R)-4-(1,4-oxazepan-4-yl)-1-(phenylthio)butan-2-yl)amino)-3-((trifluoromethyl)sulfonyl)phenyl)sulfonyl)-4-(4-(((4R)-4′-chloro-4-((4-((4-(4-((2,6-dioxopiperidin-3-yl)amino)-2-fluorophenyl)piperazin-1-yl)methyl)piperidin-1-yl)methyl)-4-methyl-3,4,5,6-tetrahydro-[1,1′-biphenyl]-2-yl)methyl)piperazin-1-yl)benzamide], the EC50 in assay [6] is below 1 nM; in assay [1], 1 to 10 nM; in assay [2] it was 1 to 10 nM; in the assay with WI-38 NC, above 10000 nM; in assay [3], 1 to 10 nM.

A word on the EC50: it is the concentration giving half of the maximal effect.
